What follows are compounds tested against T1, histamine H3 receptor (Homo sapiens, UniProt Q9Y5N1) (assay: Histamine H3 functional antagonist assay ([35S]-GTPγS SPA on membranes)). Conditions: hydrochloride salts tested; membrane prepared from cultured H3 cells; averages of a number of experiments; read-out: functional pKi (fpKi), histamine H3 functional antagonism (converted).
T1 construct: expressed in transfected cells; host or cells: CHO K1 cells (pSwitch/pGene GeneSwitch system, mifepristone-induced), clone 3H3; membrane preparation
T1 sequence (Q9Y5N1 whole entry): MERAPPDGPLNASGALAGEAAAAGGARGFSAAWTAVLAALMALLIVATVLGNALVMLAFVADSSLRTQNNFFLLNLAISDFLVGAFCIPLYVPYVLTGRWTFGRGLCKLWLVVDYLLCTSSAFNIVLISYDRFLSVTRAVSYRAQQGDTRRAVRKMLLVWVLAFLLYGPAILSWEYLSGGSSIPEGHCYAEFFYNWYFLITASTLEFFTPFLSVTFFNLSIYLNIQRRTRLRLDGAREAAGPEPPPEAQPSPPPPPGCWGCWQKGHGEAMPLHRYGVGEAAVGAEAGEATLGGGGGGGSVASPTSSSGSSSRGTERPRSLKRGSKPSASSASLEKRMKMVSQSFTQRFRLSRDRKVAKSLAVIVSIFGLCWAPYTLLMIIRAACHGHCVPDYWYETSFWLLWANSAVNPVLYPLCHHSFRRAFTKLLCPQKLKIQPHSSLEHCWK
Format: biochemical
From the text: A membrane preparation containing histamine H3 receptors may be prepared in accordance with the following procedures:
(i) Generation of Histamine H3 Cell Line
DNA encoding the human histamine H3 gene (Huvar, A. et al. (1999) Mol. Pharmacol. 55(6), 1101-1107) was cloned into a holding vector, pCDNA3.1 TOPO (InVitrogen) and its cDNA was isolated from this vector by restriction digestion of plasmid DNA with the enzymes BamH1 and Not-1 and ligated into the inducible expression vector pGene (InVitrogen) digested with the same enzymes. The GeneSwitch™ system (a system where in transgene expression is switched off in the absence of an inducer and switched on in the presence of an inducer) was performed as described in U.S. Pat. Nos. 5,364,791; 5,874,534; and 5,935,934. Ligated DNA was transformed into competent DH5α E. coli host bacterial cells and plated onto Luria Broth (LB) agar containing Zeocin™ (an antibiotic which allows the selection of cells expressing the sh ble gene which is present on pGene and pSwitch) at 50 μg ml^−1. Colonies containing the re-ligated plasmid were identified by restriction analysis. DNA for transfection into mammalian cells was prepared from 250 ml cultures of the host bacterium containing the pGeneH3 plasmid and isolated using a DNA preparation kit (Qiagen Midi-Prep) as per manufacturers guidelines (Qiagen).
CHO K1 cells previously transfected with the pSwitch regulatory plasmid (InVitrogen) were seeded at 2×10e6 cells per T75 flask in Complete Medium, containing Hams F12 (GIBCOBRL, Life Technologies) medium supplemented with 10% v/v dialysed foetal bovine serum, L-glutamine, and hygromycin (100 μg ml^−1), 24 hours prior to use. Plasmid DNA was transfected into the cells using Lipofectamine plus according to the manufacturers guidelines (InVitrogen). 48 hours post transfection cells were placed into complete medium supplemented with 500 μg ml^−1 Zeocin™.
10-14 days post selection 10 nM Mifepristone (InVitrogen), was added to the culture medium to induce the expression of the receptor. 18 hours post induction cells were detached from the flask using ethylenediamine tetra-acetic acid (EDTA; 1:5000; InVitrogen), following several washes with phosphate buffered saline pH 7.4 and resuspended in Sorting Medium containing Minimum Essential Medium (MEM), without phenol red, and supplemented with Earles salts and 3% Foetal Clone II (Hyclone). Approximately 1×10e7 cells were examined for receptor expression by staining with a rabbit polyclonal antibody, 4a, raised against the N-terminal domain of the histamine H3 receptor, incubated on ice for 60 minutes, followed by two washes in sorting medium. Receptor bound antibody was detected by incubation of the cells for 60 minutes on ice with a goat anti rabbit antibody, conjugated with Alexa 488 fluorescence marker (Molecular Probes). Following two further washes with Sorting Medium, cells were filtered through a 50 μm Filcon™ (BD Biosciences) and then analysed on a FACS Vantage SE Flow Cytometer fitted with an Automatic Cell Deposition Unit. Control cells were non-induced cells treated in a similar manner. Positively stained cells were sorted as single cells into 96-well plates, containing Complete Medium containing 500 μg ml^−1 Zeocin™ and allowed to expand before reanalysis for receptor expression via antibody and ligand binding studies. One clone, 3H3, was selected for membrane preparation.
(ii) Membrane Preparation from Cultured Cells
All steps of the protocol are carried out at 4° C. and with pre-cooled reagents. The cell pellet is resuspended in 10 volumes of homogenisation buffer (50 mM N-2-hydroxyethylpiperazine-N′-2-ethanesulfonic acid (HEPES), 1 mM ethylenediamine tetra-acetic acid (EDTA), pH 7.4 with KOH), supplemented with 10e-4M leupeptin (acetyl-leucyl-leucyl-arginal; Sigma L2884), 25 μg/ml bacitracin (Sigma B0125), 1 mM phenylmethylsulfonyl fluoride (PMSF) and 2×10e-6M pepstatin A (Sigma). […]

Row | Compound | Ki [nM]
1 | CC(C)N1CCc2cn(-c3ccc(N4CCOC4=O)cc3)nc2CC1 [Example E9, 3-{4-[6-(1-Methylethyl)-5,6,7,8-tetrahydropyrazolo[3,4-d]azepin-2(4H)-yl]phenyl}-1,3-oxazolidin-2-one] | < 1
2 | CCN1CCc2cn(-c3ccc(N4CCCC4=O)cc3)nc2CC1 [Example E18, 1-[4-(6-Ethyl-5,6,7,8-tetrahydropyrazolo[3,4-d]azepin-2(4H)-yl)phenyl]-2-pyrrolidinone] | < 0.316
3 | c1cc(-n2cc3c(n2)CCN(C2CCC2)CC3)ccc1N1CCOCC1 [Example E39, 6-Cyclobutyl-2-[4-(4-morpholinyl)phenyl]-2,4,5,6,7,8-hexahydropyrazolo[3,4-d]azepine] | < 1
4 | CC(C)CN1CCc2cn(-c3ccc(N4CCOC4=O)cc3)nc2CC1 [Example E42] | < 1
5 | Cc1noc(-c2ccc(-n3cc4c(n3)CCN(C(C)C)CC4)cc2)n1 [Example E15, 6-(1-Methylethyl)-2-[4-(3-methyl-1,2,4-oxadiazol-5-yl)phenyl]-2,4,5,6,7,8-hexahydropyrazolo[3,4-d]azepine] | < 1
6 | O=C1CCCN1c1ccc(-n2cc3c(n2)CCN(C2CCC2)CC3)cc1 [Example E13] | < 0.316
7 | CN1CCN(c2ccc(-n3cc4c(n3)CCN(C3CCC3)CC4)cc2)C1=O [Example E36] | < 0.316
8 | O=C1CCCN1c1ccc(-n2cc3c(n2)CCN(C2CCC2)CC3)cn1 [Example E12, 1-[5-(6-Cyclobutyl-5,6,7,8-tetrahydropyrazolo[3,4-d]azepin-2(4H)-y)-2-pyridinyl]-2-pyrrolidinone] | < 1
9 | CC(C)CN1CCc2cn(-c3ccc(N4CCCC4=O)cc3)nc2CC1 [Example E20] | < 1
10 | O=C1OCCN1c1ccc(-n2cc3c(n2)CCN(C2CCCC2)CC3)cc1 [Example E30] | < 1
11 | O=C1CCCN1c1ccc(-n2cc3c(n2)CCN(C2CCCC2)CC3)cc1 [Example E24, 1-[4-(6-Cyclopentyl-5,6,7,8-tetrahydropyrazolo[3,4-d]azepin-2(4H)-yl)phenyl]-2-pyrrolidinone] | < 1
12 | CC(C)N1CCc2cn(-c3ccc(N4CCN(C)C4=O)cc3)nc2CC1 [Example E10, 1-Methyl-3-{4-[6-(1-methylethyl)-5,6,7,8-tetrahydropyrazolo[3,4-d]azepin-2(4H)-yl]phenyl}-2-imidazolidinone] | < 1
13 | O=C1OCCN1c1ccc(-n2cc3c(n2)CCN(C2CCC2)CC3)cc1 [Example E37, 3-[4-(6-Cyclobutyl-5,6,7,8-tetrahydropyrazolo[3,4-d]azepin-2(4H)-yl)phenyl]-1,3-oxazolidin-2-one] | < 0.316
14 | Cc1noc(-c2ccc(-n3cc4c(n3)CCN(C3CCCC3)CC4)cc2)n1 [Example E27, 6-Cyclopentyl-2-[4-(3-methyl-1,2,4-oxadiazol-5-yl)phenyl]-2,4,5,6,7,8-hexahydropyrazolo[3,4-d]azepine] | < 1
15 | Cc1noc(-c2ccc(-n3cc4c(n3)CCN(C3CCC3)CC4)cc2)n1 [Example E25, 6-Cyclobutyl-2-[4-(3-methyl-1,2,4-oxadiazol-5-yl)phenyl]-2,4,5,6,7,8-hexahydropyrazolo[3,4-d]azepine] | < 1
16 | CN1CCN(c2ccc(-n3cc4c(n3)CCN(C3CCCC3)CC4)cc2)C1=O [Example E31] | < 1
17 | Cc1ccc(N2CCC(n3cc4c(n3)CCN(C3CCC3)CC4)CC2)cn1 [Example E44, 6-Cyclobutyl-2-[1-(6-methyl-3-pyridinyl)-4-piperidinyl]-2,4,5,6,7,8-hexahydropyrazolo[3,4-d]azepine] | < 1
18 | CC(C)N1CCc2cn(-c3ccc(N4CCCC4=O)cc3)nc2CC1 [Example E14, 1-{4-[6-(1-Methylethyl)-5,6,7,8-tetrahydropyrazolo[3,4-d]azepin-2(4H)-yl]phenyl}-2-pyrrolidinone] | < 1

From patent publication US7888347B2, “Pyrazolo [3,4-D]azepine derivatives as histamine H3 antagonists” (Glaxo Group Limited, priority 2005, dated 2011)
